Where two headings read alike, the source gives them in different places.
Legend:
[1] = Physical and chemical stability of Compound 4 solutions at ambient temperature; format: physicochemical; conditions: 20-25° C.
Description: In this example, Compound 4 was formulated as a solution for topical ocular administration. Solutions of Compound 4 were formulated at a range of concentrations. Briefly, Compound 4 was first completely solubilized using an acidic solution (0.1N HCl) at a high concentration of ˜5% (w/v). The final formulation was diluted to 0.5, 0.1, or 0.05% (w/v) Compound 4 into 20 mM Citrate buffered solution containing TWEEN 80 as described in Table 7. Following dilution, the pH's of the formulations were estimated to be ˜5.5-6.5, using a universal pH indicator solution (Ricca).
Solution physical and chemical stability at ambient temperature (20-25° C.) were evaluated 10-21 days after initial formulation (tfinal). Physical stability was assessed visually. No precipitation or sedimentation in any samples was observed. All formulations maintained good chemical stability, within 10% of target concentration at tfinal. The API purity as defined by % peak area for all formulations were also high, at >99% (Table 8). Formulations pH's were also measured using a universal pH indicator solution (RICCA) and confirmed be similar to those at initial time of formulation.

[2] = Pharmacokinetic study, back of the eye drug exposure after topical instillation of MPP; format: in vivo, Dutch-belted rabbits; conditions: Dutch-belted, rabbit, topical or ocular, 50 μL of 0.5% MPP, MPP 0.5%, 50 μL topical, BID 5 days, 8 mm round punch
Description: (§1) Dutch-belted rabbits were used in these studies.
The portion of the retina and choroid collected and analyzed was an 8 mm round punch where the macula is located in humans.

[3] = Draize-Ocular Irritation assessment during the PK study; format: in vivo, Dutch-belted rabbits; conditions: MPP 0.5%, 50 μL topical, BID 5 days
Description: as §1

[4] = Particle size of compounds milled with PLURONIC F127 as MPP, by dynamic light scattering; format: physicochemical; conditions: formulated as MPP, milled with PLURONIC F127, buffered with DPBS
Description: The compounds of the present invention synthesized in accordance with the preceding Examples were formulated as mucus penetrating particles (MPP). Specifically, Compound 4 of Example 1, Compound 9 of Example 2, and Compound 13 of Example 3 were each milled in the presence of PLURONIC F127 (F127) to determine whether F127 1) aids particle size reduction to several hundreds of nanometers and 2) physically (non-covalently) coats the surface of generated nanoparticles with a mucoinert coating that would minimize particle interactions with mucus constituents and prevent mucus adhesion.
A milling procedure was employed in which an aqueous dispersion containing coarse drug particles and PLURONIC F127 (F127) was milled with grinding medium until particle size was reduced below 400 nm as measured by dynamic light scattering. Table 4 lists the size of particles and polydispersity index (a measure of the width of the particle size distribution) generated using this technique. In this example suspensions were buffered using DPBS (Dulbecco's Phosphate-Buffered Saline) which yields a suspension that is both isotonic and has a physiologically relevant pH.

[5] = target API 0.05% (w/v), TWEEN 80 0.05% (w/v), tfinal 13 days
[6] = target API 0.10% (w/v), TWEEN 80 0.1% (w/v), tfinal 21 days
[7] = target API 0.50% (w/v), TWEEN 80 4% (w/v), tfinal 10 days

Row | SMILES | API % (w/v) at t = tfinal [1, 5] | API % peak area at t = tfinal [1, 5] [%] | API % (w/v) at t = tfinal [1, 6] | API % peak area at t = tfinal [1, 6] [%] | API % (w/v) at t = tfinal [1, 7] | API % peak area at t = tfinal [1, 7] [%] | AUC(0-t) ([2]; choroid, read-out: AUC0-last Choroid) [µM·h] | Cmax ([2]; choroid, read-out: Cmax Choroid) [nM] | AUC(0-t) ([2]; retina, read-out: AUC0-last Retina) [µM·h] | Cmax ([2]; retina, read-out: Cmax Retina) [nM] | Draize-Ocular Irritation [3] | Particle Size [4] [nm] | Polydispersity Index (PDI) [4]
1 | COc1cc2c(Oc3ccc4[nH]c(C)cc4c3F)ncnc2cc1OCCCN1CCC2(CC1)COC2 [Compound 4, 7-(3-(4-(4-fluoro-2-methyl-1H-indol-5-yloxy)-6-methoxyquinazolin-7-yloxy)propyl)-2-oxa-7-azaspiro[3.5]nonane] | 0.05 % (w/v) | 99.45 | 0.11 % (w/v) | 99.47 | 0.51 % (w/v) | 99.27 | 37.2 | 3900 | 1.15 | 193 | no irritation was seen | 270 | 0.142
2 | CCCNC(=O)n1c(C)cc2c(F)c(Oc3ncnc4cc(OC)c(OC)cc34)ccc21 [Compound 13, 5-(6,7-Dimethoxyquinazolin-4-yloxy)-4-fluoro-2-methyl-N-propyl-1H-indole-1-carboxamide] |  |  |  |  |  |  |  |  |  |  |  | 165 | 0.227

From US10758539B2, “Therapeutic compounds and uses thereof” (Kala Pharmaceuticals, Inc., priority 2013, dated 2020)
